Experimental data reported in US12139492B2 (Endotarget Inc., priority 2021, dated 2024).
Where two headings read alike, the source gives them in different places.

Tests used:
JeKo-1 cells = assay: Antiproliferative effect, MTS cell viability assay, JeKo-1 cells; type: cell-based; conditions: Homo sapiens; JeKo-1 mantle cell lymphoma cells; read-out: IC50 (anti-proliferation) JeKO-1 cells
Outline: (§1)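 Readout was MTS-derived formazan absorbance (490 nm) reflecting metabolically active cells. Treatment lasted 72 h over a 0–10 μM range (0.001, 0.01, 0.1, 1, 10 μM) in JeKo-1 and Mino B-cell malignancy cells.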

Mino cells = assay: Antiproliferative effect, MTS cell viability assay, Mino cells; type: cell-based; conditions: Homo sapiens, MINO, Mino mantle cell lymphoma cells; read-out: IC50 (anti-proliferation) Mino cells
Outline: as §1

BTK = BTK (Homo sapiens, UniProt Q06187); assay: Degradation of BTK protein in Namalwa cells (Western blot; DC50, Dmax); conditions: for DC50: cell line not given
[1] = read-out: DC50 (BTK degradation), concentration giving 50% reduction of BTK expression level
[2] = read-out: Dmax (BTK degradation)

Chain of BTK (Q06187 whole entry): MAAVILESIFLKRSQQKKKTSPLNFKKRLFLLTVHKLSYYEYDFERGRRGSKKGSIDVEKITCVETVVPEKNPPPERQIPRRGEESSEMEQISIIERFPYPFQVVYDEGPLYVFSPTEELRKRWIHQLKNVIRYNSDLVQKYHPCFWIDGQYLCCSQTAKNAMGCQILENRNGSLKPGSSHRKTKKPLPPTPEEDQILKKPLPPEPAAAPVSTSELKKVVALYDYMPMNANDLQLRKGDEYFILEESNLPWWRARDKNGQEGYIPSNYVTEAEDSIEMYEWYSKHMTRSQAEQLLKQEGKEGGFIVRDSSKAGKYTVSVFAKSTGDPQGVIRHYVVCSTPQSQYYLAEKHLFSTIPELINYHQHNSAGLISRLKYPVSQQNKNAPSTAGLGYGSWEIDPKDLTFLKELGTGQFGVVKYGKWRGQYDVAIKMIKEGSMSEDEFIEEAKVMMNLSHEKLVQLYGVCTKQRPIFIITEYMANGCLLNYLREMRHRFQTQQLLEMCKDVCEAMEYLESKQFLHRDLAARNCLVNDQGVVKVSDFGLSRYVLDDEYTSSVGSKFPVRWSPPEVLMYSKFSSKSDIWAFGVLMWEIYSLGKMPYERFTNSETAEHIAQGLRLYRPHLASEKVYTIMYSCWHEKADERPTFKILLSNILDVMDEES

Row | degradation of BTK protein (BTK; Namalwa B lymphocyte cells, various concentrations, 24 hours, Western blot) | DC50 (BTK; [1]) [µM] | Dmax (BTK; [2]) [%] | Dmax (BTK) [%] | DC50 (BTK; BTK degradation) [µM] | Compound | IC50 (JeKo-1 cells) [µM] | IC50 (Mino cells) [µM]
1 | dose-dependent degradation | 0.01 to 0.05 | > 90 |  |  | Nc1ncnc2c1c(-c1ccc(Oc3ccccc3)cc1)nn2C1CCN(C2CCN(CC3CN(CC4CN(c5ccc6c(c5)C(=O)N(C5CCC(=O)NC5=O)C6=O)C4)C3)CC2)CC1 (centres unmarked) [Compound 437] | 1 to 10 | 1 to 10
2 |  | < 0.01 | > 90 |  |  | Nc1ncnc2c1c(-c1ccc(Oc3ccccc3)cc1)nn2C1CCN(CCN2CC(CN3CCN(c4ccc5c(c4)C(=O)N(C4CCC(=O)NC4=O)C5=O)CC3)C2)CC1 (centres unmarked) [Compound 461, 5-(4-((1-(2-(4-(4-amino-3-(4-phenoxyphenyl)-1H-pyrazolo[3,4-d]pyrimidin-1-yl)piperidin-1-yl)ethyl)azetidin-3-yl)methyl)piperazin-1-yl)-2-(2,6-dioxopiperidin-3-yl)isoindoline-1,3-dione] | < 1 | < 1
3 |  | 0.01 to 0.05 | > 90 |  |  | NC1=NC=NC2C1C(c1ccc(Oc3ccccc3)cc1)=NN2C1CCN(C(=O)N2CC(C3CN(c4ccc5c(c4)C(=O)N(C4CCC(=O)NC4=O)C5=O)C3)C2)CC1 (centres unmarked) [Compound 493, 5-(1′-(4-(4-amino-3-(4-phenoxyphenyl)-3a,7a-dihydro-1H-pyrazolo[3,4-d]pyrimidin-1-yl)piperidine-1-carbonyl)-[3,3′-biazetidin]-1-yl)-2-(2,6-dioxopiperidin-3-yl)isoindoline-1,3-dione] | < 1 | < 1
4 |  | < 0.01 | > 90 |  |  | Nc1ncnc2c1c(-c1ccc(Oc3ccccc3)cc1)nn2C1CCN(C2CCN(CCN3CCN(c4ccc(N5CCC(=O)NC5=O)cc4)CC3)C2)CC1 (centres unmarked) [Compound 575, 1-(4-(4-(2-(3-(4-(4-amino-3-(4-phenoxyphenyl)-1H-pyrazolo[3,4-d]pyrimidin-1-yl)piperidin-1-yl)pyrrolidin-1-yl)ethyl)piperazin-1-yl)phenyl)dihydropyrimidine-2,4(1H,3H)-dione] | 1 to 10 | 1 to 10
5 |  | < 0.01 | > 90 |  |  | Nc1ncnc2c1c(-c1ccc(Oc3ccccc3)cc1)nn2C1CCN(CCCN2CCC(CN3CCN(c4ccc(N5CCC(=O)NC5=O)cc4)CC3)CC2)CC1 [Compound 556, 1-(4-(4-((1-(3-(4-(4-amino-3-(4-phenoxyphenyl)-1H-pyrazolo[3,4-d]pyrimidin-1-yl)piperidin-1-yl)propyl)piperidin-4-yl)methyl)piperazin-1-yl)phenyl)dihydropyrimidine-2,4(1H,3H)-dione] | < 1 | < 1

More lines, now with the values behind:

Row | Compound | degradation of BTK protein (BTK; Namalwa B lymphocyte cells, various concentrations, 24 hours, Western blot) | DC50 (BTK; [1]) [µM] | Dmax (BTK; [2]) [%] | Dmax (BTK) [%] | DC50 (BTK; BTK degradation) [µM] | IC50 (JeKo-1 cells) [µM] | IC50 (Mino cells) [µM]
6 | NC(=O)c1c(-c2ccc(Oc3ccccc3)cc2)nn2c1NCC[C@H]2C1CCN(CC2CCN(CC3CCN(c4ccc5c(c4)CN(C4CCC(=O)NC4=O)C5=O)CC3)CC2)CC1 (stereo partly drawn) [Compound 330, (7S)-7-(1-((1-((1-(2-(2,6-dioxopiperidin-3-yl)-1-oxoisoindolin-5-yl)piperidin-4-yl)methyl)piperidin-4-yl)methyl)piperidin-4-yl)-2-(4-phenoxyphenyl)-4,5,6,7-tetrahydropyrazolo[1,5-a]pyrimidine-3-carboxamide] |  |  |  | > 75 | 0.01 to 0.05 | 1 to 10 | 1 to 10
7 | NC(=O)c1c(-c2ccc(Oc3ccccc3)cc2)nn2c1NCCC2C1CCN(C(=O)N2CCN(CC3CCN(c4ccc5c(c4)CN(C4CCC(=O)NC4=O)C5=O)CC3)CC2)CC1 (centres unmarked) [Compound 274, 7-(1-(4-((1-(2-(2,6-dioxopiperidin-3-yl)-1-oxoisoindolin-5-yl)piperidin-4-yl)methyl)piperazine-1-carbonyl)piperidin-4-yl)-2-(4-phenoxyphenyl)-4,5,6,7-tetrahydropyrazolo[1,5-a]pyrimidine-3-carboxamide] |  |  |  | > 90 | < 0.01 | < 1 | < 1
8 | NC(=O)c1c(-c2ccc(Oc3ccccc3)cc2)nn2c1NCCC2C1CCN(C(=O)N2CCC(CC3CCN(c4ccc5c(c4)CN(C4CCC(=O)NC4=O)C5=O)CC3)CC2)CC1 (centres unmarked) [Compound 278, 7-(1-(4-((1-(2-(2,6-dioxopiperidin-3-yl)-1-oxoisoindolin-5-yl)piperidin-4-yl)methyl)piperidine-1-carbonyl)piperidin-4-yl)-2-(4-phenoxyphenyl)-4,5,6,7-tetrahydropyrazolo[1,5-a]pyrimidine-3-carboxamide] |  |  |  | > 90 | < 0.01 | 1 to 10 | < 1
9 | NC(=O)c1c(-c2ccc(Oc3ccccc3)cc2)nn2c1NCC[C@H]2C1CCN(C2CCN(C(=O)N3CCN(Cc4ccc5c(c4)C(=O)N(C4CCC(=O)NC4=O)C5=O)CC3)CC2)CC1 (stereo partly drawn) [Compound 379, (7S)-7-(1′-(4-((2-(2,6-dioxopiperidin-3-yl)-1,3-dioxoisoindolin-5-yl)methyl)piperazine-1-carbonyl)-[1,4′-bipiperidin]-4-yl)-2-(4-phenoxyphenyl)-4,5,6,7-tetrahydropyrazolo[1,5-a]pyrimidine-3-carboxamide] |  |  |  | > 75 | > 0.05 | > 10 | > 10
10 | Nc1ncnc2c1c(-c1ccc(Oc3ccccc3)cc1)nn2C1CCN(C[C@@H]2CCN(CC3CN(c4ccc5c(c4)C(=O)N(C4CCC(=O)NC4=O)C5=O)C3)C2)CC1 (stereo partly drawn) [Compound 423b, 5-(3-(((S)-3-((4-(4-amino-3-(4-phenoxyphenyl)-1H-pyrazolo[3,4-d]pyrimidin-1-yl)piperidin-1-yl)methyl)pyrrolidin-1-yl)methyl)azetidin-1-yl)-2-(2,6-dioxopiperidin-3-yl)isoindoline-1,3-dione] |  | 0.01 to 0.05 | > 90 |  |  | 1 to 10 | < 1
11 | NC(=O)c1c(-c2ccc(Oc3ccccc3)cc2)nn2c1NCC[C@H]2C1CCN(CC2CCN(C(=O)N3CCN(Cc4ccc5c(c4)C(=O)N(C4CCC(=O)NC4=O)C5=O)CC3)CC2)CC1 (stereo partly drawn) [Compound 399, (7S)-7-(1-((1-(4-((2-(2,6-dioxopiperidin-3-yl)-1,3-dioxoisoindolin-5-yl)methyl)piperazine-1-carbonyl)piperidin-4-yl)methyl)piperidin-4-yl)-2-(4-phenoxyphenyl)-4,5,6,7-tetrahydropyrazolo[1,5-a]pyrimidine-3-carboxamide] |  | > 0.05 | > 50 |  |  | > 10 | 1 to 10
12 | Nc1ncnc2c1c(-c1ccc(Oc3ccccc3)cc1)nn2C1CCN(CC2CCN(CCCC3CCN(c4ccc5c(c4)C(=O)N(C4CCC(=O)NC4=O)C5=O)CC3)CC2)CC1 (centres unmarked) [Compound 211, 5-(4-(3-(4-((4-(4-amino-3-(4-phenoxyphenyl)-1H-pyrazolo[3,4-d]pyrimidin-1-yl)piperidin-1-yl)methyl)piperidin-1-yl)propyl)piperidin-1-yl)-2-(2,6-dioxopiperidin-3-yl)isoindoline-1,3-dione] |  |  |  | > 75 | 0.01 to 0.05 | > 10 | 1 to 10
13 | NC(=O)c1c(-c2ccc(Oc3ccccc3)cc2)nn2c1NCC[C@H]2C1CCN(CC2CCN(C(=O)N3CCC(N4CCN(c5ccc6c(c5)CN(C5CCC(=O)NC5=O)C6=O)CC4)CC3)CC2)CC1 (stereo partly drawn) [Compound 404, (7S)-7-(1-((1-(4-(4-(2-(2,6-dioxopiperidin-3-yl)-1-oxoisoindolin-5-yl)piperazin-1-yl)piperidine-1-carbonyl)piperidin-4-yl)methyl)piperidin-4-yl)-2-(4-phenoxyphenyl)-4,5,6,7-tetrahydropyrazolo[1,5-a]pyrimidine-3-carboxamide] |  | < 0.01 | > 90 |  |  | < 1 | < 1
